This note sets out measurements from ChEMBL document CHEMBL3751839, “Novel phenylalanine derived diamides as Factor XIa inhibitors” (Bioorg Med Chem Lett, 2016).

Series [1] in a line: in vitro. As to conditions: human, liver microsomes.
Description: Stability in human liver microsomes assessed as half life
Series [2] in a line: in vivo. As to conditions: beagle, dog, iv, 0.4 mg/kg.
Description: Clearance in beagle dog at 0.4 mg/kg, iv administered as cassette dosing by LC-MS/MS method
Series [3] can be described thus: in vivo. The settings on record: beagle, dog, iv, 0.4 mg/kg. The source holds these as a separate data set.
Description: Volume of distribution at steady state in beagle dog at 0.4 mg/kg, iv cassette dosing by LC-MS/MS method
Series [4] is described as follows: in vivo. The settings on record: beagle, dog, iv, 0.4 mg/kg. The source holds these as a separate data set.
Description: Half life in beagle dog at 0.4 mg/kg, iv cassette dosing by LC-MS/MS method
Series [5] in a line: in vivo. The settings on record: beagle, dog, iv, 0.4 mg/kg. This is another data set of the same source.
Description: Total AUC in beagle dog at 0.4 mg/kg, iv administered as cassette dosing by LC-MS/MS method

Bounds are passed on as bounds.

`O=C(/C=C/c1cc(Cl)ccc1-n1cnnn1)N[C@@H](Cc1ccccc1)C(=O)Nc1ccc(-n2cnnn2)cc1` came in with a half-life in series [1] greater than 1.67 h.
In turn, `COC(=O)Nc1cccc(NC(=O)[C@H](Cc2ccccc2)NC(=O)/C=C/c2cc(Cl)ccc2-n2cnnn2)c1` came in with a half-life in series [1] greater than 1.67 h.
The molecule `O=C(/C=C/c1cc(Cl)ccc1-n1cnnn1)N[C@@H](Cc1ccccc1)C(=O)Nc1ccc(-c2nc[nH]n2)cc1` yielded a half-life in series [1] greater than 1.67 h.
As to `O=C(/C=C/c1cc(Cl)ccc1-n1cnnn1)N[C@@H](Cc1ccccc1)C(=O)Nc1ccc(C(=O)O)cc1`, in series [2], the clearance was determined as 16 mL/min/kg. Also, the Vd in series [3] was found to be 0.5 L/kg. Also, the half-life in series [4] is 0.6 h; in series [1] it was greater than 2 h. In addition, the AUC in series [5] was found to be 0.396 µM·h.
